The record followed here is ChEMBL document CHEMBL3046816, “Development of a Novel Insecticide, Dinotefuran” (J Pestic Sci, 2005).

Data set [1] can be described thus: Solubility in water at pH 7. The note with it: buffer.
The nature of data set [2]: Acute toxicity in Anas platyrhynchos (mallard duck) dosed with diet. The settings on record: in vivo, po.
Data set [3] is described as follows: Octanol-water partition coefficient, log Pow of the compound.
A short description of data set [4]: Toxicity in male po dosed Mus musculus (mouse). The note with it: in vivo.
Data set [5] is described as follows: Toxicity in female po dosed Mus musculus (mouse). The note with it: in vivo.

≈ marks a conversion by molar mass, not a printed value.

One may read the solubility as the concentration that dissolves in the medium under given conditions. A higher solubility goes with much dissolved substance. As a reminder, the logP is a log measure of how a compound divides between an organic and an aqueous phase. A high value points to higher lipophilicity. Consider `CN/C(=N/CC1CCOC1)N[N+](=O)[O-]` (stereo not given) [DINOTEFURAN], for which the solubility in data set [1] came to 40 mg/mL (≈ 198 mM). Besides, the LD50 was more than 1300 mg/kg in data set [2], 2450 mg/kg in data set [4] and 2280 mg/kg in data set [5]. Besides, the logP in data set [3] is -0.549.
